Five compounds from article PMC12693701, “Glucosinolate-Derived Metabolites from Barbarea vulgaris (Brassicaceae): Evaluation of Antimicrobial, Antioxidant, and Anti-Inflammatory Potentials” (Molecules, 2025) can be followed below.

The test system of test [1] is K. pneumoniae. In words: Microdilution MIC/MMC with resazurin. Type of test: cell-based, Klebsiella pneumoniae. The note with it: K. pneumoniae, compounds 1–8; for MIC: Klebsiella pneumoniae, read-out: MIC. The protocol:
(§1) The antimicrobial activity was evaluated against 15 microorganisms. This included 11 bacterial strains: four standard strains (Staphylococcus aureus ATCC 25923, Bacillus subtilis ATCC 6633, Bacillus pumilus NCTC 8241, and Escherichia coli ATCC 25922) and six clinical or environmental isolates (Staphylococcus aureus, Escherichia coli, Bacillus cereus, Proteus mirabilis, Salmonella enterica, and Klebsiella pneumoniae). One probiotic strain, Bifidobacterium animalis subsp. lactis was tested. In addition, four fungal strains, Candida albicans ATCC 10231, Trichoderma viride ATCC 13233, Aspergillus flavus ATCC 9170, and Fusarium solani ATCC 11712 were tested. The bacterial strains were kept in glycerol stock at −80 °C and the fungal strains in paraffin oil stock at 4 °C.
(§2) Bacterial and yeast suspensions were prepared using the direct colony method, as previously described by Andrews. The turbidity of the initial suspensions was adjusted to match the 0.5 McFarland standard using a densitometer (Biosan, Riga, Latvia), corresponding to approximately 10^8 colony-forming units (CFU)/mL for bacterial cells and 10^6 CFU/mL for yeast cells. Subsequently, 1:100 dilutions of the initial suspensions were prepared in sterile 0.85% saline. Fungal spore suspensions were obtained by gently harvesting spores from agar slopes containing mature mycelial growth. The collected spore suspensions were then diluted 1:1000 in sterile 0.85% saline prior to use.
(§3) Antimicrobial activity was evaluated by determining the minimum inhibitory concentration (MIC) and minimum microbicidal concentration (MMC) using the microdilution plate method with resazurin as an indicator [28]. In the 96-well plates, 100 μL of Mueller–Hinton broth (Torlak, Belgrade, Serbia) for bacterial testing and Sabouraud broth (Torlak, Belgrade, Serbia) for fungal testing were dispensed into each well. The compounds under investigation were initially dissolved in a 10% dimethyl sulfoxide (DMSO) solution, followed by dilution in sterile distilled water, resulting in a working compound solution containing 1% DMSO. A 100 μL aliquot of the stock solution of the tested compound was added to the first row, and twofold serial dilutions were then carried out using a multichannel pipette. The resulting concentration range was from 5 to 0.039 mg/mL. The inoculated microtiter plates were incubated at 37 °C for 24 h for bacteria, at 28 °C for 48 h for yeasts, and at 28 °C for 72 h for molds.
(§4) Each test also included growth control and sterility control. All tests were conducted in duplicate. MIC was defined as the lowest concentration of tested compounds that prevented resazurin color change from blue to pink. For molds, MIC values of the tested compound were determined as the lowest concentration that inhibited visible mycelia growth. MMC was determined by inoculation of the nutrient agar medium by plating […] of samples from wells, where no indicator color change was recorded. At the end of the incubation period, the lowest concentration with no growth (no colony) was defined as MMC.
(§5) Doxycycline, ampicillin and amphotericin B (- Sigma-Aldrich, St. Louis, MO, USA) and ketoconazole (Hemofarm A.D., Vršac, Serbia) were dissolved in a nutrient liquid medium. Doxycycline is a broad-spectrum antibiotic effective against both aerobic and anaerobic Gram-positive and Gram-negative bacteria. Ampicillin, a beta-lactam antibiotic, primarily targets Gram-positive bacteria but also some Gram-negative strains. Amphotericin B is an antifungal drug often used for serious systemic fungal infections and is one of the effective treatments for fungal infections caused by Aspergillus sp. Ketoconazole is an antifungal agent used to inhibit the growth of Candida species.

A short description of test [2]: ABTS radical scavenging assay. The note with it: mean ± SD. As to the method:
The ABTS radical cation solution was prepared following the previously described protocol. Different concentrations of the analyzed samples were prepared in DMSO. The test samples were prepared following the specified procedure: 20 µL of sample was combined with 980 µL of methanol, followed by the addition of 1000 µL of ABTS solution. Absorbance was measured at 734 nm. All measurements were performed in triplicate.

The test system of test [3] is C. albicans ATCC 10231. In words: Microdilution MIC/MMC with resazurin. The following applies: C. albicans ATCC 10231, compounds 1–8; for MIC: Candida albicans, ATCC10231, read-out: MIC. Type of test: cell-based, Candida albicans. As to the method: as §1, §2, §3, §4, §5
Test [4] deals with A. flavus ATCC 9170. Briefly: Microdilution MIC/MMC. Type of test: cell-based, Aspergillus flavus. The note with it: A. flavus ATCC 9170, compounds 1–8; for MIC: Aspergillus flavus, ATCC9170, read-out: MIC. The protocol:
as §1, §2, §3, §4, §5
(In broth dilution the organism is exposed to a series of concentrations in liquid medium.)

Test [5] deals with S. aureus. Briefly: Microdilution MIC/MMC with resazurin. The following applies: S. aureus isolate, compounds 1–8; for MIC: Staphylococcus aureus, read-out: MIC. It counts as cell-based, Staphylococcus aureus. As to the method:
as §1, §2, §3, §4, §5

In test [6] the test system is S. aureus ATCC 25923. Briefly: Microdilution MIC/MMC with resazurin. The note with it: S. aureus ATCC 25923, compounds 1–8; for MIC: Staphylococcus aureus, ATCC25923, read-out: MIC. Type of test: cell-based, Staphylococcus aureus. As to the method: as §1, §2, §3, §4, §5
Test [7] deals with F. solani ATCC 11712. In words: Microdilution MIC/MMC. It counts as cell-based, Fusarium solani. The following applies: F. solani ATCC 11712, compounds 1–8; for MIC: Fusarium solani, ATCC11712, read-out: MIC. As to the method: as §1, §2, §3, §4, §5
The nature of test [8]: DPPH radical scavenging assay. The note with it: mean ± SD. As to the method:
The DPPH assay was used to assess the ability of the tested compounds to scavenge reactive radical species. Stock solutions of the investigated compounds were prepared in DMSO and then diluted with methanol to a final volume of 1000 µL. An equal volume of a 50 µM DPPH solution in methanol was then added to the prepared mixture. The final concentrations of the test compounds were 25, 50, and 100 µM. After thorough mixing, the samples were incubated in the dark at room temperature for 20 to 60 min. Methanol was used as a blank, and absorbance was measured at 517 nm after incubation. All measurements were performed in triplicate.

SMILES strings stand for the structures. Converted amounts (≈) assume the structure as drawn.

Broadly, the MIC is the lowest concentration found to suppress growth. As to `S=C1NCC(c2ccccc2)O1` (racemic) [Compound 4, rac-5-Phenyl-1,3-oxazolidine-2-thione], the MMC in test [1] is given as 5 mg/mL; in test [3], 5 mg/mL; in test [4] it was above 5 mg/mL; in test [5] it was 1.25 mg/mL; in test [6], 2.5 mg/mL; in test [7] it was 3.75 mg/mL. Moreover, the MIC in test [1] was 2500 µg/mL (≈ 13.9 mM); in test [3], 5000 µg/mL (≈ 27.9 mM); in test [4], above 5000 µg/mL; in test [5] it was 1250 µg/mL (≈ 6.97 mM); in test [6] it was 1250 µg/mL (≈ 6.97 mM); in test [7] it was 2500 µg/mL (≈ 13.9 mM). In addition, the “ABTS Scavenging Ability” value in test [2] (25 µM) was 0.9 ± 0.1%; in test [2] (50 µM), 1.6 ± 0.9%; in test [2] (100 µM), 2.5 ± 0.3%. Besides, the “DPPH Scavenging Ability” value was 1.2 ± 0.7% in test [8] (25 µM, 20 min); 1.3 ± 0.5% in test [8] (25 µM, 60 min); 1.7 ± 0.8% in test [8] (50 µM, 20 min); 2.0 ± 0.9% in test [8] (50 µM, 60 min); 3.8 ± 1.2% in test [8] (100 µM, 20 min); 3.5 ± 1.7% in test [8] (100 µM, 60 min).

Turning to `CSC(=S)NCCc1ccccc1` [Compound 1, Methyl phenethylcarbamodithioate], the MMC in test [1] is 5 mg/mL; in test [3], above 5 mg/mL; in test [4] it was 2.5 mg/mL; in test [5] it was 5 mg/mL; in test [6], 5 mg/mL; in test [7] it was 1.25 mg/mL. Further, the MIC in test [1] came to 5000 µg/mL (≈ 23.7 mM); in test [3], 1250 µg/mL (≈ 5.91 mM); in test [4], 1250 µg/mL (≈ 5.91 mM); in test [5], 5000 µg/mL (≈ 23.7 mM); in test [6] it was 5000 µg/mL (≈ 23.7 mM); in test [7], 1250 µg/mL (≈ 5.91 mM). Besides, the figures for the “ABTS Scavenging Ability” value in test [2] (25 µM), in test [2] (50 µM) and in test [2] (100 µM) were 1.7 ± 1.1%, 2.2 ± 1.2% and 2.6 ± 0.8%, respectively. Besides, the “DPPH Scavenging Ability” value is recorded as 1.6 ± 1.2% in test [8] (25 µM, 20 min); 1.8 ± 1.5% in test [8] (25 µM, 60 min); 2.5 ± 1.1% in test [8] (50 µM, 20 min); 2.4 ± 1.4% in test [8] (50 µM, 60 min); 2.6 ± 1.2% in test [8] (100 µM, 20 min); 2.9 ± 1.7% in test [8] (100 µM, 60 min).

As to `CSC(=S)NCCc1ccc(O)cc1` [Compound 2, methyl-4-hydroxyphenylethyl dithiocarbamate], the MMC in test [1] was 0.625 mg/mL; in test [3], above 5 mg/mL; in test [4], 0.625 mg/mL; in test [5], 0.312 mg/mL; in test [6], 0.156 mg/mL; in test [7] it was 0.234 mg/mL. Also, the MIC in test [1] amounted to 625 µg/mL (≈ 2.75 mM); in test [3], 2500 µg/mL (≈ 11 mM); in test [4], 312 µg/mL (≈ 1.37 mM); in test [5], 312 µg/mL (≈ 1.37 mM); in test [6], 156 µg/mL (≈ 0.686 mM); in test [7], 156 µg/mL (≈ 0.686 mM). Further, the entries for the “ABTS Scavenging Ability” value in test [2] (25 µM), in test [2] (50 µM) and in test [2] (100 µM) were 7.6 ± 1.0%, 13.4± 0.9% and 13.4 ± 0.8%, respectively. Moreover, the “DPPH Scavenging Ability” value in test [8] (25 µM, 20 min) is on record as 11.9 ± 0.7%; in test [8] (25 µM, 60 min) it was 12.0 ± 0.4%; in test [8] (50 µM, 20 min), 15.6 ± 0.3%; in test [8] (50 µM, 60 min) it was 15.7 ± 1.4%; in test [8] (100 µM, 20 min) it was 24.9 ± 1.1%; in test [8] (100 µM, 60 min), 25.2 ± 1.6%.

In the case of `O=C(O)C1CSC(=S)N1` (stereo not drawn) [Compound 3, 2-Thioxothiazolidine-4-carboxylic Acid], the MMC came out at 2.5 mg/mL in test [1]; 1.25 mg/mL in test [3]; 5 mg/mL in test [4]; 0.312 mg/mL in test [5]; 0.625 mg/mL in test [6]; 0.625 mg/mL in test [7]. Moreover, the MIC was 2500 µg/mL (≈ 15.3 mM) in test [1]; 312 µg/mL (≈ 1.91 mM) in test [3]; 5000 µg/mL (≈ 30.6 mM) in test [4]; 156 µg/mL (≈ 0.956 mM) in test [5]; 625 µg/mL (≈ 3.83 mM) in test [6]; 625 µg/mL (≈ 3.83 mM) in test [7]. Besides, the “ABTS Scavenging Ability” value in test [2] (25 µM) was found to be 1.2 ± 0.3%; in test [2] (50 µM) it was 1.9 ± 1.2%; in test [2] (100 µM), 2.6 ± 0.7%. Besides, the “DPPH Scavenging Ability” value in test [8] (25 µM, 20 min) amounted to 1.0 ± 0.3%; in test [8] (25 µM, 60 min), 1.1 ± 0.5%; in test [8] (50 µM, 20 min), 1.9 ± 0.8%; in test [8] (50 µM, 60 min), 2.1 ± 1.1%; in test [8] (100 µM, 20 min), 7.8 ± 1.8%; in test [8] (100 µM, 60 min) it was 7.9 ± 1.7%.

Regarding `S=C1NC[C@H](c2ccccc2)O1` [Compound 5, (S)-5-phenyl-1,3-oxazolidine-2-thione], the MMC in test [1] is recorded as 5 mg/mL; in test [3], above 5 mg/mL; in test [4], above 5 mg/mL; in test [5], above 5 mg/mL; in test [6], above 5 mg/mL; in test [7], above 5 mg/mL. Besides, the MIC is 5000 µg/mL (≈ 27.9 mM) in test [1]; 5000 µg/mL (≈ 27.9 mM) in test [3]; above 5000 µg/mL in test [4]; above 5000 µg/mL in test [5]; 5000 µg/mL (≈ 27.9 mM) in test [6]; 5000 µg/mL (≈ 27.9 mM) in test [7]. In addition, the “ABTS Scavenging Ability” value in test [2] (25 µM) is given as 6.6 ± 0.2%; in test [2] (50 µM), 12.3 ± 0.8%; in test [2] (100 µM) it was 19.1 ± 0.6%. Moreover, the “DPPH Scavenging Ability” value is recorded as 7.0 ± 0.9% in test [8] (25 µM, 20 min); 8.4 ± 0.5% in test [8] (25 µM, 60 min); 14.8 ± 0.7% in test [8] (50 µM, 20 min); 16.4 ± 0.4% in test [8] (50 µM, 60 min); 21.6 ± 1.2% in test [8] (100 µM, 20 min); 22.4 ± 0.7% in test [8] (100 µM, 60 min).
